Where “and” joins values, the source holds several entries; their conditions need not be identical. Equal entries are not always repeated. Toxic doses and inconclusive results are not listed.
Tested on: BDF1 mice, P388 leukemia ip, median survival T/C
Test: NCI In Vivo Anticancer Drug Screen. Data for tumor model P388 Leukemia (intraperitoneal) in B6D2F1 (BDF1) mice
Conditions: endpoint: median survival time, higher = longer survival
Method in brief: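 T/C = treated-group survival ÷ vehicle-control survival; tumour transplanted into mice before dosing.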

[1] = dose: 100.0 mg/kg/injection, schedule: Q04DX003 (ip), vehicle: saline sonified
[2] = dose: 50.0 mg/kg/injection, schedule: Q01DX009 (ip), vehicle: saline with Tween-80
[3] = dose: 100.0 mg/kg/injection, schedule: Q01DX009 (ip), vehicle: saline with Tween-80
[4] = dose: 200.0 mg/kg/injection, schedule: Q01DX009 (ip), vehicle: saline with Tween-80
[5] = dose: 100.0 mg/kg/injection, schedule: Q01DX009 (ip), vehicle: Klucel (hydroxypropylcellulose) (HPC)
[6] = dose: 200.0 mg/kg/injection, schedule: Q01DX009 (ip), vehicle: Klucel (hydroxypropylcellulose) (HPC)
[7] = dose: 6.25 mg/kg/injection, schedule: Q01DX009 (ip), vehicle: saline with Tween-80
[8] = dose: 12.5 mg/kg/injection, schedule: Q01DX009 (ip), vehicle: saline with Tween-80
[9] = dose: 25.0 mg/kg/injection, schedule: Q01DX009 (ip), vehicle: saline with Tween-80
[10] = dose: 100.0 mg/kg/injection, schedule: Q04DX003 (ip), vehicle: saline with Tween-80
[11] = dose: 100.0 mg/kg/injection, schedule: Q04DX003 (ip), vehicle: Klucel (hydroxypropylcellulose) (HPC)
[12] = dose: 200.0 mg/kg/injection, schedule: Q04DX003 (ip), vehicle: Klucel (hydroxypropylcellulose) (HPC)
[13] = dose: 400.0 mg/kg/injection, schedule: Q04DX003 (ip), vehicle: Klucel (hydroxypropylcellulose) (HPC)

For `O=C(Nc1ccccc1Cl)OCC#CCOC(=O)Nc1ccccc1Cl`, the T/C [1] was 90 % of control, the T/C (dose: 200.0 mg/kg/injection, schedule: Q04DX003 (ip), vehicle: saline sonified) was 95 % of control and the T/C (dose: 400.0 mg/kg/injection, schedule: Q04DX003 (ip), vehicle: saline sonified) was 86 % of control.
For `C=C(C)CP(=O)(c1ccccc1)c1ccccc1`, the T/C [2] was 96 % of control, the T/C [3] was 100 % of control and the T/C [4] was 91 % of control.
`Cc1ccc(S(=O)(=O)OCC(C)(C)NC(=O)c2ccc([N+](=O)[O-])cc2)cc1` was tested, and the T/C (dose: 50.0 mg/kg/injection, schedule: Q01DX001 (ip), vehicle: saline with Tween-80) was 100 % of control, the T/C (dose: 100.0 mg/kg/injection, schedule: Q01DX001 (ip), vehicle: saline with Tween-80) was 105 % of control and the T/C (dose: 200.0 mg/kg/injection, schedule: Q01DX001 (ip), vehicle: saline with Tween-80) was 110 % of control.
In the case of `O=C1OC(=O)c2c1ccc(Br)c2Br`, the T/C [5] is reported as 100 % of control, the T/C [6] is reported as 90 % of control and the T/C (dose: 400.0 mg/kg/injection, schedule: Q01DX009 (ip), vehicle: Klucel (hydroxypropylcellulose) (HPC)) is reported as 90 % of control.
`Clc1ccccc1-c1ncc2cnccn12` was tested, and the T/C (dose: 0.19 mg/kg/injection, schedule: Q01DX009 (ip), vehicle: saline with Tween-80) was 102 % of control, the T/C (dose: 0.39 mg/kg/injection, schedule: Q01DX009 (ip), vehicle: saline with Tween-80) was 102 % of control and the T/C (dose: 0.78 mg/kg/injection, schedule: Q01DX009 (ip), vehicle: saline with Tween-80) was 106 % of control. The T/C (dose: 1.56 mg/kg/injection, schedule: Q01DX009 (ip), vehicle: saline with Tween-80) was 102 % of control, the T/C [7] was 99 % of control and 103 % of control and the T/C [8] was 86 % of control. For the same molecule, the T/C [9] was 88 % of control, the T/C (dose: 25.0 mg/kg/injection, schedule: Q04DX003 (ip), vehicle: saline with Tween-80) was 115 % of control and the T/C [2] was 86 % of control. The T/C (dose: 50.0 mg/kg/injection, schedule: Q04DX003 (ip), vehicle: saline with Tween-80) was 107 % of control and the T/C [10] was 88 % of control.
For `Oc1ccc(I)c2cccnc12`, the T/C (dose: 62.5 mg/kg/injection, schedule: Q01DX010 (ip), vehicle: carboxymethylcellulose (CMC)) was 90 % of control, the T/C (dose: 250.0 mg/kg/injection, schedule: Q01DX010 (ip), vehicle: carboxymethylcellulose (CMC)) was 100 % of control and the T/C (dose: 500.0 mg/kg/injection, schedule: Q01DX010 (ip), vehicle: carboxymethylcellulose (CMC)) was 110 % of control.
For `O=C(c1ccccc1)C1C(c2ccccc2)C2(CCCCC2=O)C(c2ccccc2)CC1(O)c1ccccc1` (centres undefined), the T/C (dose: 25.0 mg/kg/injection, schedule: Q01DX001 (ip), vehicle: Klucel (hydroxypropylcellulose) (HPC)) was 88 % of control.
With `CCCSCC(C)C` the T/C [10] was 100 % of control, the T/C (dose: 200.0 mg/kg/injection, schedule: Q04DX003 (ip), vehicle: saline with Tween-80) was 109 % of control and the T/C (dose: 400.0 mg/kg/injection, schedule: Q04DX003 (ip), vehicle: saline with Tween-80) was 90 % of control.
In the case of `CN1Cc2c(ccc3c2OCO3)[C@@H]2[C@H](O)Cc3cc4c(cc3[C@@H]21)OCO4`, the T/C (dose: 50.0 mg/kg/injection, schedule: Q01DX010 (ip), vehicle: saline) is reported as 100 % of control and the T/C (dose: 100.0 mg/kg/injection, schedule: Q01DX010 (ip), vehicle: saline) is reported as 100 % of control.
In the case of `CCOC(=O)C(C)C(O)(c1ccccc1)c1ccccc1` (centres undefined), the T/C [11] is reported as 100 % of control, the T/C [12] is reported as 104 % of control and the T/C [13] is reported as 104 % of control.
`C=C1CC2(CCC(C(C)(C)C)CC2)OC1=O` (centres undefined) was tested, and the T/C (dose: 100.0 mg/kg/injection, schedule: Q04DX002 (ip), vehicle: saline with Tween-80) was 105 % of control, the T/C (dose: 200.0 mg/kg/injection, schedule: Q04DX002 (ip), vehicle: saline with Tween-80) was 108 % of control and the T/C (dose: 400.0 mg/kg/injection, schedule: Q04DX002 (ip), vehicle: saline with Tween-80) was 97 % of control.
In the case of `CS(C)=O.CS(C)=O.[Cl][Sn]([Cl])([Cl])[Cl]`, the T/C (dose: 37.5 mg/kg/injection, schedule: Q01DX009 (ip), vehicle: Klucel (hydroxypropylcellulose) (HPC)) is reported as 105 % of control, the T/C (dose: 75.0 mg/kg/injection, schedule: Q01DX009 (ip), vehicle: Klucel (hydroxypropylcellulose) (HPC)) is reported as 100 % of control and the T/C [11] is reported as 104 % of control. The T/C (dose: 150.0 mg/kg/injection, schedule: Q01DX009 (ip), vehicle: Klucel (hydroxypropylcellulose) (HPC)) was 100 % of control and the T/C [12] was 90 % of control.
For `COc1cccc(C2NC(=O)c3c(n[nH]c3N)S2)c1O` (centres undefined), the T/C [2] was 103 % of control, the T/C [3] was 99 % of control and the T/C [4] was 103 % of control.
`O=P(N1CCCCC1)(N1CC1)N1CC1` was tested, and the T/C (dose: 2.2 mg/kg/injection, schedule: Q01DX009 (ip), vehicle: saline) was 103 % of control, the T/C (dose: 3.3 mg/kg/injection, schedule: Q01DX009 (ip), vehicle: saline) was 118 % of control and the T/C (dose: 7.5 mg/kg/injection, schedule: Q01DX009 (ip), vehicle: saline) was 185 % of control. For the same molecule, the T/C (dose: 25.0 mg/kg/injection, schedule: Q04DX003 (ip), vehicle: saline) was 225 % of control.
With `NC(=O)NO.NC(=O)NO.[Cl][Ni][Cl]` the T/C (dose: 3.12 mg/kg/injection, schedule: Q01DX009 (ip), vehicle: saline) was 92 % of control.
With `CC/C(C)=C1\OC(=O)C(C)C(O)C(Cc2cccnc2)NC(=O)C(NC(=O)c2ncccc2O)C(C)OC1=O` (centres undefined) the T/C (dose: 3.13 mg/kg/injection, schedule: Q01DX009 (ip), vehicle: saline with Tween-80) was 97 % of control, the T/C [7] was 106 % of control and the T/C [8] was 103 % of control. For the same molecule, the T/C [9] was 93 % of control.
`CCC1=CC(C(O)CC(C)C)C(C)(Cc2ccc(CC)cn2)NC1c1ccccc1` (centres undefined) was tested, and the T/C (dose: 25.0 mg/kg/injection, schedule: Q04DX002 (ip), vehicle: saline with Tween-80) was 101 % of control and the T/C (dose: 50.0 mg/kg/injection, schedule: Q04DX002 (ip), vehicle: saline with Tween-80) was 106 % of control.
For `c1ccncc1`, the T/C (dose: 100.0 mg/kg/injection, schedule: Q04DX003 (ip), vehicle: saline) was 96 % of control, the T/C (dose: 200.0 mg/kg/injection, schedule: Q04DX003 (ip), vehicle: saline) was 102 % of control and the T/C (dose: 400.0 mg/kg/injection, schedule: Q04DX003 (ip), vehicle: saline) was 105 % of control.
With `O=C(O)c1ccccc1NC(=O)C(F)(F)F` the T/C (dose: 25.0 mg/kg/injection, schedule: Q04DX003 (ip), vehicle: saline sonified) was 91 % of control, the T/C (dose: 50.0 mg/kg/injection, schedule: Q04DX003 (ip), vehicle: saline sonified) was 91 % of control and the T/C [1] was 91 % of control.
For `C1CC[N-]CC1.C1CC[N-]CC1.C1CC[N-]CC1.C1CC[N-]CC1.N#C[S-].N#C[S-].[Ni]`, the T/C (dose: 5.0 mg/kg/injection, schedule: Q01DX009 (ip), vehicle: saline with Tween-80) was 100 % of control, the T/C (dose: 10.0 mg/kg/injection, schedule: Q01DX009 (ip), vehicle: saline with Tween-80) was 100 % of control and the T/C (dose: 20.0 mg/kg/injection, schedule: Q01DX009 (ip), vehicle: saline with Tween-80) was 108 % of control.
`CCOC(=O)C(OCC)P(=O)(OCC)OCC` (centres undefined) was tested, and the T/C (dose: 25.0 mg/kg/injection, schedule: Q04DX003 (ip), vehicle: Klucel (hydroxypropylcellulose) (HPC)) was 93 % of control, the T/C (dose: 50.0 mg/kg/injection, schedule: Q04DX003 (ip), vehicle: Klucel (hydroxypropylcellulose) (HPC)) was 97 % of control and the T/C [11] was 91 % of control. The T/C [12] was 90 % of control and the T/C [13] was 93 % of control.
With `CP(O)(=S)C1CCCCC1` (centres undefined) (tested in a mixture with another compound) the T/C (dose: 50.0 mg/kg/injection, schedule: Q01DX005 (ip), vehicle: saline) was 94 % of control, the T/C (dose: 100.0 mg/kg/injection, schedule: Q01DX005 (ip), vehicle: saline) was 91 % of control and the T/C (dose: 200.0 mg/kg/injection, schedule: Q01DX005 (ip), vehicle: saline) was 90 % of control.
For `Nc1nc(SCc2ccccn2)c2[nH]cnc2n1`, the T/C (dose: 20.0 mg/kg/injection, schedule: Q04DX003 (ip), vehicle: Klucel (hydroxypropylcellulose) (HPC)) was 104 % of control, the T/C (dose: 30.0 mg/kg/injection, schedule: Q04DX003 (ip), vehicle: Klucel (hydroxypropylcellulose) (HPC)) was 104 % of control and the T/C (dose: 44.0 mg/kg/injection, schedule: Q04DX003 (ip), vehicle: Klucel (hydroxypropylcellulose) (HPC)) was 104 % of control. For the same molecule, the T/C [5] was 107 % of control and the T/C [6] was 92 % of control.

— PubChem BioAssay AID328 (DTP/NCI, 2004)
